In PubChem BioAssay (NCI):
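Following 48 hours of exposure in 96-well plates, responses at five concentrations were used to interpolate endpoints linearly. The concentration for full growth arrest is given as TGI.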

Columns and labels:
Assay in all cases: inhibition of tumour cell growth, NCI panel, 48 h
COLO 205 colon = test system: COLO 205 colon
UACC-257 melanoma = test system: UACC-257 melanoma
M14 melanoma = test system: M14 melanoma
SF-539 CNS = test system: SF-539 CNS
KM20L2 colon = test system: KM20L2 colon
SNB-75 CNS = test system: SNB-75 CNS
SNB-19 CNS = test system: SNB-19 CNS
K-562 leukemia = test system: K-562 leukemia
HOP-62 NSCLC = test system: HOP-62 NSCLC
KM12 colon = test system: KM12 colon
M19-MEL melanoma = test system: M19-MEL melanoma
786-0 renal = test system: 786-0 renal
HT29 colon = test system: HT29 colon
SR leukemia = test system: SR leukemia
NCI-H226 lung = test system: NCI-H226 lung
HOP-92 NSCLC = test system: HOP-92 NSCLC
OVCAR-5 ovarian = test system: OVCAR-5 ovarian
UACC-62 melanoma = test system: UACC-62 melanoma
OVCAR-8 ovarian = test system: OVCAR-8 ovarian
LXFL 529 NSCLC = test system: LXFL 529 NSCLC
A549 NSCLC = test system: A549 NSCLC
OVCAR-3 ovarian = test system: OVCAR-3 ovarian
SK-MEL-28 melanoma = test system: SK-MEL-28 melanoma
U251 CNS = test system: U251 CNS
SF-268 CNS = test system: SF-268 CNS
IGROV1 ovarian = test system: IGROV1 ovarian
HL-60(TB) leukemia = test system: HL-60(TB) leukemia
SF-295 CNS = test system: SF-295 CNS
OVCAR-4 ovarian = test system: OVCAR-4 ovarian
SW-620 colon = test system: SW-620 colon
SK-OV-3 ovarian = test system: SK-OV-3 ovarian
HCT-116 colon = test system: HCT-116 colon
ACHN renal = test system: ACHN renal
NCI-H23 lung = test system: NCI-H23 lung
DLD-1 colon = test system: DLD-1 colon
MOLT-4 leukemia = test system: MOLT-4 leukemia
NCI-H522 lung = test system: NCI-H522 lung
UO-31 renal = test system: UO-31 renal
LOX IMVI melanoma = test system: LOX IMVI melanoma
NCI-H460 lung = test system: NCI-H460 lung
RPMI-8226 leukemia = test system: RPMI-8226 leukemia
TK-10 renal = test system: TK-10 renal
SNB-78 CNS = test system: SNB-78 CNS
CCRF-CEM leukemia = test system: CCRF-CEM leukemia
PC-3 prostate = test system: PC-3 prostate
MALME-3M melanoma = test system: MALME-3M melanoma
NCI/ADR-RES ovarian = test system: NCI/ADR-RES ovarian
HCT-15 colon = test system: HCT-15 colon
T-47D breast = test system: T-47D breast
BT-549 breast = test system: BT-549 breast
CAKI-1 renal = test system: CAKI-1 renal
SK-MEL-2 melanoma = test system: SK-MEL-2 melanoma
DU-145 prostate = test system: DU-145 prostate
MDA-MB-231 breast = test system: MDA-MB-231 breast
MDA-N = test system: MDA-N
SN12C renal = test system: SN12C renal
A498 renal = test system: A498 renal
HS 578T breast = test system: HS 578T breast
EKVX NSCLC = test system: EKVX NSCLC
SK-MEL-5 melanoma = test system: SK-MEL-5 melanoma
RXF 393 renal = test system: RXF 393 renal
MDA-MB-435 = test system: MDA-MB-435
HCC-2998 colon = test system: HCC-2998 colon
MCF7 breast = test system: MCF7 breast

Measured: TGI

S=c1[nH]nc(-c2ccccc2)n1/N=C\c1ccc(-c2ccc(Cl)cc2)o1
not listed: CCRF-CEM leukemia | PC-3 prostate | MALME-3M melanoma | NCI/ADR-RES ovarian | HCT-15 colon | T-47D breast | BT-549 breast | CAKI-1 renal | SK-MEL-2 melanoma | DU-145 prostate | MDA-MB-231 breast | MDA-N | SN12C renal | A498 renal | HS 578T breast | EKVX NSCLC | SK-MEL-5 melanoma | RXF 393 renal | MDA-MB-435 | HCC-2998 colon | MCF7 breast
> 100 µM: all other assays above

N#CC1CCCC2SC(F)(F)C(F)(F)C12 (configuration not stated)
99.3 µM: MOLT-4 leukemia
> 78.3 µM: K-562 leukemia
54.9 µM: HL-60(TB) leukemia
72.7 µM: SR leukemia
> 66.7 µM: CCRF-CEM leukemia
not listed: KM20L2 colon | M19-MEL melanoma | LXFL 529 NSCLC | DLD-1 colon | SNB-78 CNS
> 100 µM: all other assays above
